Source: US8999326B2, “Oncotherapeutic application of inhibitors of high-affinity glucose transporters” (University of South Florida, priority 2007, dated 2015)

The molecules below were run on H1299, H1650 and MCF-7 cells (assay: BrdU proliferation assay, statements for all three cell lines). Details: 5 μM cisplatin, 5 μM paclitaxel or 10 μM gefitinib.
Type: cell-based, human
Experimental: FIGS. 5A-5C show the combined effect of chemotherapeutic drugs and Glut-1 antibody on cell proliferation. H1299 (FIG. 5A), H1650 (FIG. 5B), and MCF-7 (FIG. 5C) cells were grown on chamber slides as described above and treated either with cisplatin, paclitaxel or iressa in presence or absence of Glut-1 antibody (0.1 mg) for 18 hours. The proliferation was measured by BrdU incorporation.
MCF-7, H1299 and H1650 cells were plated onto poly-D-lysine (Sigma) coated 8-well glass chamber slides (10,000 cells per well). The cells were incubated with 0.1 mg/ml Glut-1 monoclonal antibody for 18 hours. The cells were fixed and stained using 5-Bromo-2′ deoxyuridine labeling and detection kit from ROCHE according to manufacturer's protocol.
Experiments were done to evaluate whether anti-Glut-1 antibody could synergize with standard chemotherapeutic agents to inhibit proliferation of H1299, H1650 and MCF-7. The cells were plated on chamber slides and incubated in presence of chemotherapeutic agents (5 μM cisplatin, 5 μM paclitaxel or 10 μM geftinib) in absence or presence of 0.1 mg/ml anti-Glut-1 antibody.

| SMILES | effect of drug alone on proliferation |
| --- | --- |
| N.N.[Cl][Pt][Cl] [cisplatin] | significant decrease in proliferation |
| COc1cc2ncnc(Nc3ccc(F)c(Cl)c3)c2cc1OCCCN1CCOCC1 [gefitinib] | significant decrease in proliferation |
| CC(=O)O[C@H]1C(=O)[C@@]2(C)[C@H]([C@H](OC(=O)c3ccccc3)[C@]3(O)C[C@H](OC(=O)[C@H](O)[C@@H](NC(=O)c4ccccc4)c4ccccc4)C(C)=C1C3(C)C)[C@]1(OC(C)=O)CO[C@@H]1C[C@@H]2O [paclitaxel] | significant decrease in proliferation |
